The results in this text go back to PMC12434670 (Journal of Medicinal Chemistry, 2025).

Molecules are shown by their SMILES. Where two headings read alike, the source gives them in different places.

Data set [1] deals with A/H1N1 virus A/Virginia/ATCC3/2009 (Virg09). The data set can be described thus: microbe, parasite or virus in culture. It counts as cell-based, influenza A virus. The settings on record: for EC50: Influenza A virus, MDCK.
A further data set concerns MDCK cells. Particulars: dog.
The next data set in a line: in vitro. Particulars: dog.
For data set [2], the system named is A/H1N1 virus A/PR/8/34 (PR8). The data set can be described thus: microbe, parasite or virus in culture. It counts as cell-based. The settings on record: Influenza A virus, MDCK.
Where [3] appears, read: read-out: Antiviral EC50 against A/H1N1 virus, Virg09 strain, MTS.
The mark [4] stands for this setting: read-out: Antiviral EC50 against A/H1N1 virus, Virg09 strain, Microscopy.
Setting [5] is: read-out: Antiviral EC50 against A/H1N1 virus, PR8 strain, MTS.
The mark [6] stands for this setting: read-out: Antiviral EC50 against A/H1N1 virus, PR8 strain, Microscopy.
The mark [7] stands for this setting: read-out: Antiviral EC50 for Virg09 virus.
[8] abbreviates: read-out: Antiviral EC50 for PR8 virus.

For the compound `Cc1sccc1CNC(=O)c1cc(Cl)cc(C(F)(F)F)c1` [Compound 49, 3-Chloro-N-((2-methylthiophen-3-yl)methyl)-5-(trifluoromethyl)benzamide], the EC50 in data set [1] (setting [3]) was found to be 0.37 ± 0.16 µM; in data set [1] (setting [4]), 0.48 ± 0.07 µM; in data set [2] (setting [5]), 0.14 ± 0.04 µM; in data set [2] (setting [6]) it was 0.14 ± 0.05 µM. The “Cytotoxicity MCC, Microscopy” value in the data set on MDCK cells was found to be 78 ± 22 µM. In the data set “in vitro”, the CC50 was > 100 µM.
Turning to `O=C(NCc1cncs1)c1cc(F)cc(C(F)(F)F)c1` [Compound 57, 3-Fluoro-N-(Thiazol-5-ylmethyl)-5-(trifluoromethyl)benzamide], the EC50 in data set [1] (setting [7]) and in data set [2] (setting [8]) was > 100 µM in each case.
With `Cc1cc(CNC(=O)c2cc(Cl)cc(C(F)(F)F)c2Cl)cs1` [Compound 53, 2,5-Dichloro-N-((5-methylthiophen-3-yl)methyl)-3-(trifluoromethyl)benzamide], the EC50 was 31 ± 3 µM in data set [1] (setting [3]), > 100 µM in data set [1] (setting [4]), 17 ± 8 µM in data set [2] (setting [5]) and > 100 µM in data set [2] (setting [6]). Besides, the “Cytotoxicity MCC, Microscopy” value with MDCK cells was >100 µM. In addition, the CC50 in the data set “in vitro” was > 100 µM.
With `O=C(NCc1cscn1)c1cc(F)cc(C(F)(F)F)c1` [Compound 62, 3-Fluoro-N-(Thiazol-4-ylmethyl)-5-(trifluoromethyl)benzamide], the EC50 in data set [1] (setting [7]) and in data set [2] (setting [8]) was > 100 µM in each case.
With `Cc1ccc(C(=O)NCc2cc(C)sc2C)cc1` [Compound 42, N-((2,5-Dimethylthiophen-3-yl)methyl)-4-methylbenzamide], the EC50 in data set [1] (setting [7]) and in data set [2] (setting [8]) was > 100 µM throughout.
Consider `Cc1cc(CNC(=O)c2cc(Cl)cc(C(F)(F)F)c2)c(C)o1` [Compound 55, 3-Chloro-N-((2,5-dimethylfuran-3-yl)methyl)-5-(trifluoromethyl)benzamide], for which the EC50 is 1.1 ± 0.3 µM in data set [1] (setting [3]), > 100 µM in data set [1] (setting [4]), 0.24 ± 0.08 µM in data set [2] (setting [5]) and 0.54 ± 0.37 µM in data set [2] (setting [6]). For the same compound, in the data set on MDCK cells, the “Cytotoxicity MCC, Microscopy” value worked out at 33 ± 0 µM. The same compound showed a CC50 in the data set “in vitro” of 29 µM.
With `Cc1cc(CNC(=O)c2cc(F)c(F)c(C(F)(F)F)c2)c(C)s1` [Compound 35, N-((2,5-Dimethylthiophen-3-yl)methyl)-3,4-difluoro-5-(trifluoromethyl)benzamide], the EC50 in data set [1] (setting [3]) came out at 0.2 ± 0.05 µM; in data set [1] (setting [4]), 0.89 ± 0.13 µM; in data set [2] (setting [5]), 0.22 ± 0.03 µM; in data set [2] (setting [6]) it was 0.86 ± 0.41 µM. Besides, the “Cytotoxicity MCC, Microscopy” value with MDCK cells was >100 µM. In addition, in the data set “in vitro”, the CC50 is > 100 µM.
On to `O=C(NCc1ccncc1)c1cc(F)cc(C(F)(F)F)c1` [Compound 59, 3-Fluoro-N-(Pyridin-4-ylmethyl)-5-(trifluoromethyl)benzamide], for which the EC50 in data set [1] (setting [7]) and in data set [2] (setting [8]) was > 100 µM in each case.
As for `O=C(NCc1ccon1)c1cc(F)cc(C(F)(F)F)c1` [Compound 58, 3-Fluoro-N-(Isoxazol-3-ylmethyl)-5-(trifluoromethyl)benzamide], the EC50 in data set [1] (setting [7]) and in data set [2] (setting [8]) was > 100 µM throughout.
On to `Cc1cc(CNC(=O)c2cc(F)c(F)c(C(F)(F)F)c2)cs1` [Compound 51, 3,4-Difluoro-N-((5-methylthiophen-3-yl)methyl)-5-(trifluoromethyl)benzamide], for which the EC50 in data set [1] (setting [3]) is 5.3 ± 0.8 µM; in data set [1] (setting [4]), > 100 µM; in data set [2] (setting [5]) it was 2.9 ± 1.1 µM; in data set [2] (setting [6]), 3.5 ± 1.2 µM. For the same compound, the “Cytotoxicity MCC, Microscopy” value in the data set on MDCK cells is 33 ± 0 µM. In “in vitro”, this compound had a CC50 of 24 ± 2 µM.
`Cc1cc(CNC(=O)c2cc(F)cc(C(F)(F)F)c2)c(C)o1` [Compound 54, N-((2,5-Dimethylfuran-3-yl)methyl)-3-fluoro-5-(trifluoromethyl)benzamide]: the EC50 in data set [1] (setting [3]) is 0.54 ± 0.06 µM; in data set [1] (setting [4]) it was 3.6 ± 2.8 µM; in data set [2] (setting [5]) it was 0.47 ± 0.19 µM; in data set [2] (setting [6]) it was 0.54 ± 0.17 µM. In the data set on MDCK cells, the “Cytotoxicity MCC, Microscopy” value was determined as 100 ± 0 µM. This compound also showed a CC50 in the data set “in vitro” of 79 ± 5 µM.
For `COc1ccc(C(=O)NCc2cc(C)sc2C)cc1` [Compound 43, N-((2,5-Dimethylthiophen-3-yl)methyl)-4-methoxybenzamide], the EC50 in data set [1] (setting [7]) and in data set [2] (setting [8]) was > 100 µM throughout.
In the case of `O=C(NCc1ccsc1)c1cc(Cl)cc(C(F)(F)F)c1` [Compound 50, 3-Chloro-N-(Thiophen-3-ylmethyl)-5-(trifluoromethyl)benzamide], the “ΔΔG (exp), change VF-57a → labelled compound” value in data set [1] was 0.8 kcal/mol. Further, the “ΔΔG (exp), change labelled compound → VF-57a” value in data set [1] is recorded as “–0.8 kcal/mol”. Besides, the EC50 is 1.1 ± 0.5 µM in data set [1] (setting [3]), 2.1 µM in data set [1] (setting [4]), 2 ± 1 µM in data set [2] (setting [5]) and 1 ± 0.6 µM in data set [2] (setting [6]). The “Cytotoxicity MCC, Microscopy” value in the data set on MDCK cells was determined as 100 ± 0 µM. The CC50 in “in vitro” worked out at 70 ± 2 µM.
For `Cc1cc(CNC(=O)c2ccccc2)c(C)s1` [Compound 40, N-((2,5-Dimethylthiophen-3-yl)methyl)benzamide], the EC50 in data set [1] (setting [7]) and in data set [2] (setting [8]) was > 100 µM throughout.
As for `NC(=O)c1ncn([C@@H]2O[C@H](CO)[C@@H](O)[C@H]2O)n1` [Ribavirin, reference compound], the EC50 came to 20 ± 2 µM in data set [1] (setting [3]), 25 µM in data set [1] (setting [4]), 38 ± 3 µM in data set [2] (setting [5]) and 27 ± 1 µM in data set [2] (setting [6]). Moreover, in the data set on MDCK cells, the “Cytotoxicity MCC, Microscopy” value is 80 ± 20 µM. Moreover, the CC50 in the data set “in vitro” is > 250 µM.
Turning to `Cc1cc(CNC(=O)c2cc(Cl)c(F)c(C(F)(F)F)c2)cs1` [Compound 52, 3-Chloro-4-fluoro-N-((5-methylthiophen-3-yl)methyl)-5-(trifluoromethyl)benzamide], the EC50 in data set [1] (setting [3]) is > 100 µM; in data set [1] (setting [4]) it was > 100 µM; in data set [2] (setting [5]) it was 8.5 ± 5.6 µM; in data set [2] (setting [6]), 13 ± 8 µM. Also, the “Cytotoxicity MCC, Microscopy” value with MDCK cells is >100 µM. Moreover, the CC50 in the data set “in vitro” is > 100 µM.
As to `Cc1cc(CNC(=O)c2cc(Cl)cc(Cl)c2)c(C)s1` [Compound 27, 3,5-Dichloro-N-[(2,5-dimethylthiophen-3-yl)methyl]benzamide], the EC50 in data set [1] (setting [7]) and in data set [2] (setting [8]) was > 100 µM each time.
Regarding `Cc1cc(CNC(=O)c2cc(Cl)cc(C(F)(F)F)c2)cs1` [Compound 48, 3-Chloro-N-((5-methylthiophen-3-yl)methyl)-5-(trifluoromethyl)benzamide], the EC50 in data set [1] (setting [3]) is 0.15 ± 0.12 µM; in data set [1] (setting [4]), 1.9 ± 1.1 µM; in data set [2] (setting [5]) it was 0.34 ± 0.18 µM; in data set [2] (setting [6]), 0.46 ± 0.14 µM. For the same compound, the “Cytotoxicity MCC, Microscopy” value with MDCK cells was >100 µM. Besides, the CC50 in “in vitro” was > 100 µM.
As for `O=C(NCc1cc[nH]n1)c1cc(F)cc(C(F)(F)F)c1` [Compound 60, N-((1H-Pyrazol-3-Yl)methyl)-3-fluoro-5-(trifluoromethyl)benzamide], the EC50 in data set [1] (setting [7]) and in data set [2] (setting [8]) was > 100 µM throughout.
As for `Cc1cc(CNC(=O)c2cc(F)cc(F)c2)c(C)s1` [Compound 26, 3,5-Difluoro-N-[(2,5-dimethylthiophen-3-yl)methyl]benzamide], the EC50 in data set [1] (setting [7]) and in data set [2] (setting [8]) was > 100 µM throughout.
For the compound `O=C(NCc1ccoc1)c1cc(F)cc(C(F)(F)F)c1` [Compound 56, 3-Fluoro-N-(Furan-3-ylmethyl)-5-(trifluoromethyl)benzamide], the EC50 in data set [1] (setting [7]) and in data set [2] (setting [8]) was > 100 µM throughout.
Take `Cc1cc(CNC(=O)c2ccc(Cl)c(Cl)c2)c(C)s1` [Compound 44, 3,4-Dichloro-N-((2,5-dimethylthiophen-3-yl)methyl)benzamide]: the EC50 in data set [1] (setting [7]) and in data set [2] (setting [8]) was > 100 µM throughout.
On to `Cc1cc(CNC(=O)c2cccc([N+](=O)[O-])c2)c(C)s1` [Compound 34, N-[(2,5-Dimethylthiophen-3-yl)methyl]-3-nitrobenzamide], for which the EC50 in data set [1] (setting [7]) and in data set [2] (setting [8]) was > 100 µM in each case.
Turning to `Cc1cc(CNC(=O)c2ccc(Cl)cc2)c(C)s1` [Compound 41, 4-Chloro-N-((2,5-dimethylthiophen-3-yl)methyl)benzamide], the EC50 in data set [1] (setting [7]) and in data set [2] (setting [8]) was > 100 µM throughout.
Turning to `Cc1cc(CNC(=O)c2cc(F)cc(C(F)(F)F)c2)cs1` [Compound 45, 3-Fluoro-N-((5-methylthiophen-3-yl)methyl)-5-(trifluoromethyl)benzamide], the EC50 worked out at 0.39 ± 0.18 µM in data set [1] (setting [3]), 1.6 ± 0.5 µM in data set [1] (setting [4]), 0.68 ± 0.51 µM in data set [2] (setting [5]) and 0.26 ± 0.02 µM in data set [2] (setting [6]). The “Cytotoxicity MCC, Microscopy” value with MDCK cells is 78 ± 22 µM. In the data set “in vitro”, this compound had a CC50 of 67 ± 1 µM.
On to `Cc1cc(CNC(=O)c2cc(Br)cc(Br)c2)c(C)s1` [Compound 28, 3,5-Dibromo-N-[(2,5-dimethylthiophen-3-yl)methyl]benzamide], for which the EC50 in data set [1] (setting [7]) and in data set [2] (setting [8]) was > 100 µM throughout.
For `Cc1cc(CNC(=O)c2cccc(Cl)c2)c(C)s1` [Compound 32, 3-Chloro-N-[(2,5-dimethylthiophen-3-yl)methyl]benzamide], the EC50 in data set [1] (setting [7]) and in data set [2] (setting [8]) was > 100 µM in each case.
Consider `O=C(NCc1cocn1)c1cc(F)cc(C(F)(F)F)c1` [Compound 61, 3-Fluoro-N-(Oxazol-4-ylmethyl)-5-(trifluoromethyl)benzamide], for which the EC50 in data set [1] (setting [7]) and in data set [2] (setting [8]) was > 100 µM throughout.
For the compound `Cc1cc(CNC(=O)c2cccc(Br)c2)c(C)s1` [Compound 33, 3-Bromo-N-[(2,5-dimethylthiophen-3-yl)methyl]benzamide], the EC50 in data set [1] (setting [7]) and in data set [2] (setting [8]) was > 100 µM each time.
Consider `Cc1cc(CNC(=O)c2cccc(C(F)(F)F)c2)c(C)s1` [Compound 31, N-[(2,5-Dimethylthiophen-3-yl)methyl]-3-(trifluoromethyl)benzamide], for which the EC50 in data set [1] (setting [7]) and in data set [2] (setting [8]) was > 100 µM each time.
Take `Cc1cc(CNC(=O)c2cccc(F)c2)c(C)s1` [Compound 30, N-[(2,5-Dimethylthiophen-3-yl)methyl]-3-fluorobenzamide]: the EC50 in data set [1] (setting [7]) and in data set [2] (setting [8]) was > 100 µM each time.
